Values quoted from earlier work in patent US20240374497A1, “COMPOSITIONS COMPRISING OR2AT4 AGONISTS” (Coty Inc., priority 2021, published 2024).

Assays:
[1] = target: T1, olfactory receptor OR2AT4 (Homo sapiens, UniProt A6NND4); settings: receptor expressed in the epithelium of human hair follicles
T1 sequence (A6NND4 1-320): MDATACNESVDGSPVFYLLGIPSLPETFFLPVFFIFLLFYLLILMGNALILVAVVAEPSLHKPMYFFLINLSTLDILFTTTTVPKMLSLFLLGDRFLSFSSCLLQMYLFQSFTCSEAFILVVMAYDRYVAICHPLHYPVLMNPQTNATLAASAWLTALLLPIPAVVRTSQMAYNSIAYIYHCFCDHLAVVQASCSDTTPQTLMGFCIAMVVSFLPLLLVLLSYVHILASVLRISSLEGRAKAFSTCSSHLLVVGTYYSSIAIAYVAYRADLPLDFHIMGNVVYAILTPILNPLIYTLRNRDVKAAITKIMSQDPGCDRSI

human epidermis = settings: ex vivo; selective activation of OR2AT4
[2] = system: human epidermal keratinocyte; settings: in vitro; selective activation of OR2AT4

Row | effect on the olfactory receptor OR2AT4 [1] | SMILES | hair growth ex vivo (human hair follicles) | apoptosis (human hair follicles; ex vivo) | production of growth factor IGF-1 (human hair follicles; ex vivo) | wound re-epithelialization (human epidermis) | human epidermal keratinocyte migration and proliferation [2]
1 | stimulatory effect | CC1=CCC(CCC(C)C(C)O)C1(C)C (stereo not drawn) [sandal pentanol, 3-methyl-5-(2,2,3-trimethylcyclopent-3-en-1-yl)pentan-2-ol] | prolongs hair growth | decreasing apoptosis | increasing the production of growth factor IGF-1 | – | –
2 | – | CC1=CCC(CCC(C)C(C)O)C1(C)C (stereo not drawn) [Sandalore®] | – | – | – | promotes | promotes human epidermal keratinocyte migration and proliferation
